# In US20160130630A1, “METHOD FOR DETECTING CAMPYLOBACTER” (JNC CORPORATION, priority 2014, published 2016):
# How the values were obtained:
# [1] = system: Campylobacter bacteria; test: growth inhibition of Campylobacter bacteria by cephamycin antibiotics; assay type: cell-based
# [2] = system: ESBL-producing bacteria; test: growth inhibition of ESBL-producing bacteria; assay type: cell-based
compound,measurement,setting,value
CO[C@@]1(NC(=O)Cc2cccs2)C(=O)N2C(C(=O)O)=C(COC(N)=O)CS[C@@H]21 [Cefoxitin],inhibition of growth of Campylobacter bacteria,[1],does not inhibit growth
same,inhibition of growth of ESBL-producing bacteria,[2],inhibits the growth
